According to patent publication US20230085307A1, “PYRIDAZINONE COMPOUND AND HERBICIDE” (NISSAN CHEMICAL CORPORATION, priority 2019, published 2023):

Assays:
[1] = tested on: wild oat; test: Test Example 4: herbicidal effect by soil treatment (Table 19, symbol I); format: in vivo, wild oat (Avena fatua); settings: amount of applied herbicide 320 g/ha
Outline: (§1)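 Pre-emergence style soil spray: seeds under ~1.5 cm sterilized diluvial soil received a uniform coat of emulsion diluted to the predetermined herbicide amount. Greenhouse 25–30° C; readout at week three on previously defined criteria.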

[2] = tested on: persian speedwell; test: Test Example 4: herbicidal effect by soil treatment (Table 19, symbol R); format: in vivo, Persian speedwell (Veronica persica); settings: amount of applied herbicide 320 g/ha
Outline: as §1

[3] = tested on: windgrass; test: Test Example 5: herbicidal effect by foliage application, plastic box (Table 20, symbol L); format: in vivo, windgrass (Apera spica-venti); settings: foliage application, 320 g/ha; for L: windgrass, herbicidal effect grade: three weeks after application
Outline: (§2)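 Plants were sown into sterilized diluvial soil under about 1.5 cm cover and kept in a greenhouse at 25° C. to 30° C. Fourteen days on, foliage received an even spray of the diluted emulsion. Herbicidal or crop effect was judged three weeks afterwards.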

[4] = tested on: velvetleaf; test: Test Example 4: herbicidal effect by soil treatment (Table 19, symbol M); format: in vivo, velvetleaf (Abutilon theophrasti); settings: amount of applied herbicide 320 g/ha
Outline: as §1

[5] = tested on: Italian ryegrass; test: Test Example 5: herbicidal effect by foliage application, plastic box (Table 20, symbol K); format: in vivo, Italian ryegrass (Lolium multiflorum); settings: foliage application, 320 g/ha; for K: Italian ryegrass, herbicidal effect grade: three weeks after application
Outline: as §2

[6] = tested on: lambsquarters; test: Test Example 4: herbicidal effect by soil treatment (Table 19, symbol O); format: in vivo, lambsquarters (Chenopodium album); settings: amount of applied herbicide 320 g/ha
Outline: as §1

[7] = tested on: late watergrass; test: Test Example 1: herbicidal activity, application before weed generation under submerged conditions (Table 16, symbol A); format: in vivo, late watergrass (Echinochloa oryzicola); settings: amount of applied herbicide 320 g/ha
Outline: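 Alluvial soil was flooded to 4 cm depth, weed seeds were sown mixed and 2.5-leaf rice seedlings were transplanted. On sowing day, the compound's emulsion, diluted in water to a set dose, was applied to the water surface. Plants grew at 25–30 °C and were scored 0–5 after three weeks.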

[8] = tested on: windgrass; test: Test Example 4: herbicidal effect by soil treatment (Table 19, symbol L); format: in vivo, windgrass (Apera spica-venti); settings: amount of applied herbicide 320 g/ha
Outline: as §1

[9] = tested on: oval-leafed pondweed; test: Test Example 2: herbicidal activity, application during weed generation under submerged conditions (Table 17, symbol C); format: in vivo, oval-leafed pondweed (Monochoria vaginalis); settings: for herbicidal effect rating, C: oval-leafed pondweed: AAH 320 g/ha, application during weed generation, submerged conditions
Outline: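 Steps: fill Wagner pots with alluvial soil; add water to give 4 cm depth; sow the species mixed; grow under glass at 25–30° C.; at 1–2 leaves apply water-diluted emulsion formulation to the water surface at a fixed herbicide amount; score after 3 weeks.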

[10] = tested on: rice flat sedge; test: Test Example 3: herbicidal effect by foliage application, Wagner pot (Table 18, symbol E); format: in vivo, rice flat sedge (Cyperus iria); settings: for herbicidal effect on rice flat sedge (E): 320 g/ha
Outline: (§3)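 Plants were sown in alluvial soil held under 0.1–0.5 cm standing water and grown 14 days in a greenhouse at 25–30 °C. An emulsifiable formulation, water-diluted to the set dose, was then sprayed onto the foliage, and effects were scored three weeks later using previously defined criteria.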

[11] = tested on: barnyard grass; test: Test Example 5: herbicidal effect by foliage application, plastic box (Table 20, symbol H); format: in vivo, barnyard grass (Echinochloa crus-galli); settings: foliage application, 320 g/ha; for H: barnyard grass, herbicidal effect grade: three weeks after application
Outline: as §2

[12] = tested on: velvetleaf; test: Test Example 5: herbicidal effect by foliage application, plastic box (Table 20, symbol M); format: in vivo, velvetleaf (Abutilon theophrasti); settings: foliage application, 320 g/ha; for M: velvetleaf, herbicidal effect grade: three weeks after application
Outline: as §2

[13] = tested on: chickweed; test: Test Example 5: herbicidal effect by foliage application, plastic box (Table 20, symbol P); format: in vivo, common chickweed (Stellaria media); settings: foliage application, 320 g/ha; for P: chickweed, herbicidal effect grade: three weeks after application
Outline: as §2

[14] = tested on: false cleavers; test: Test Example 4: herbicidal effect by soil treatment (Table 19, symbol Q); format: in vivo, false cleavers (Galium spurium); settings: amount of applied herbicide 320 g/ha
Outline: as §1

[15] = tested on: Italian ryegrass; test: Test Example 4: herbicidal effect by soil treatment (Table 19, symbol K); format: in vivo, Italian ryegrass (Lolium multiflorum); settings: amount of applied herbicide 320 g/ha
Outline: as §1

[16] = tested on: Chinese sprangletop; test: Test Example 3: herbicidal effect by foliage application, Wagner pot (Table 18, symbol D); format: in vivo, chinese sprangletop (Leptochloa chinensis); settings: for herbicidal effect on Chinese sprangletop (D): 320 g/ha
Outline: as §3

[17] = tested on: green foxtail; test: Test Example 4: herbicidal effect by soil treatment (Table 19, symbol G); format: in vivo, green foxtail (Setaria viridis); settings: amount of applied herbicide 320 g/ha
Outline: as §1

[18] = amount of applied herbicide 320 g/ha
[19] = evaluated 3 weeks after application

SMILES	I: wild oat, herbicidal effect grade [1]	R: persian speedwell, herbicidal effect grade [2]	L: windgrass, herbicidal effect grade [3]	M: velvetleaf, herbicidal effect grade [4]	K: Italian ryegrass, herbicidal effect grade [5]	O: lambsquarters, herbicidal effect grade [6]	Herbicidal effect, A: late watergrass [7]	L: windgrass, herbicidal effect grade [8]	herbicidal effect rating, C: oval-leafed pondweed [9]	herbicidal effect on rice flat sedge (E) [10]	H: barnyard grass, herbicidal effect grade [11]	M: velvetleaf, herbicidal effect grade [12]	P: chickweed, herbicidal effect grade [13]	Q: false cleavers, herbicidal effect grade [14]	K: Italian ryegrass, herbicidal effect grade [15]	herbicidal effect on Chinese sprangletop (D) [16]	G: green foxtail, herbicidal effect grade [17]	other results
CCOc1ccccc1-c1sc2cc(C)ccc2c1-c1c(O)c(C)nn(C)c1=O [3-053]	4 (Herbicidal rate of 70% or more and less than 90%)	5 (Herbicidal rate of 90% or more (almost completely withered))	5 (Herbicidal rate of 90% or more (almost completely withered))	0 (Herbicidal rate of 5% or less (almost no effect))	5 (Herbicidal rate of 90% or more (almost completely withered))	4 (Herbicidal rate of 70% or more and less than 90%)	5 (Herbicidal rate of 90% or more (almost completely withered))	5 (Herbicidal rate of 90% or more (almost completely withered))	3 (Herbicidal rate of 40% or more and less than 70%)	5 (Herbicidal rate of 90% or more (almost completely withered))	5 (Herbicidal rate of 90% or more (almost completely withered))	5 (Herbicidal rate of 90% or more (almost completely withered))	5 (Herbicidal rate of 90% or more (almost completely withered))	5 (Herbicidal rate of 90% or more (almost completely withered))	4 (Herbicidal rate of 70% or more and less than 90%)	4 (Herbicidal rate of 70% or more and less than 90%)	5 (Herbicidal rate of 90% or more (almost completely withered))	–
CCOc1cc(F)ccc1-c1sc2cc(F)ccc2c1-c1c(O)c(C)nn(C)c1=O [3-011]	–	–	5 (Herbicidal rate of 90% or more (almost completely withered))	–	5 (Herbicidal rate of 90% or more (almost completely withered))	–	5 (Herbicidal rate of 90% or more (almost completely withered))	–	4 (Herbicidal rate of 70% or more and less than 90%)	–	5 (Herbicidal rate of 90% or more (almost completely withered))	5 (Herbicidal rate of 90% or more (almost completely withered))	5 (Herbicidal rate of 90% or more (almost completely withered))	–	–	–	–	herbicidal effect, I: wild oat [1]: 4 (Herbicidal rate of 70% or more and less than 90%); herbicidal effect, R: persian speedwell [2]: 4 (Herbicidal rate of 70% or more and less than 90%); herbicidal effect, M: velvetleaf [4]: 4 (Herbicidal rate of 70% or more and less than 90%); herbicidal effect, O: lambsquarters [6]: 5 (Herbicidal rate of 90% or more (almost completely withered)); herbicidal effect, L: windgrass [8]: 5 (Herbicidal rate of 90% or more (almost completely withered)); herbicidal effect on E: rice flat sedge [10, 18]: 5 (Herbicidal rate of 90% or more (almost completely withered)); herbicidal effect, Q: false cleavers [14]: 5 (Herbicidal rate of 90% or more (almost completely withered)); herbicidal effect, K: Italian ryegrass [15]: 3 (Herbicidal rate of 40% or more and less than 70%); herbicidal effect on D: Chinese sprangletop [16, 18]: 4 (Herbicidal rate of 70% or more and less than 90%); herbicidal effect, G: green foxtail [17]: 5 (Herbicidal rate of 90% or more (almost completely withered))
CCOc1cc(F)ccc1-c1sc2cc(C)ccc2c1-c1c(O)c(C)nn(C)c1=O [3-057]	3 (Herbicidal rate of 40% or more and less than 70%)	5 (Herbicidal rate of 90% or more (almost completely withered))	5 (Herbicidal rate of 90% or more (almost completely withered))	2 (Herbicidal rate of 20% or more and less than 40%)	5 (Herbicidal rate of 90% or more (almost completely withered))	5 (Herbicidal rate of 90% or more (almost completely withered))	5 (Herbicidal rate of 90% or more (almost completely withered))	5 (Herbicidal rate of 90% or more (almost completely withered))	3 (Herbicidal rate of 40% or more and less than 70%)	4 (Herbicidal rate of 70% or more and less than 90%)	5 (Herbicidal rate of 90% or more (almost completely withered))	5 (Herbicidal rate of 90% or more (almost completely withered))	5 (Herbicidal rate of 90% or more (almost completely withered))	3 (Herbicidal rate of 40% or more and less than 70%)	2 (Herbicidal rate of 20% or more and less than 40%)	3 (Herbicidal rate of 40% or more and less than 70%)	4 (Herbicidal rate of 70% or more and less than 90%)	–
Cc1nn(C)c(=O)c(-c2c(-c3ccc(Cl)cc3)sc3cccc(F)c23)c1O [11-001]	0 (Herbicidal rate of 5% or less (almost no effect))	5 (Herbicidal rate of 90% or more (almost completely withered))	–	2 (Herbicidal rate of 20% or more and less than 40%)	–	4 (Herbicidal rate of 70% or more and less than 90%)	3 (Herbicidal rate of 40% or more and less than 70%)	0 (Herbicidal rate of 5% or less (almost no effect))	–	–	–	–	–	0 (Herbicidal rate of 5% or less (almost no effect))	0 (Herbicidal rate of 5% or less (almost no effect))	–	0 (Herbicidal rate of 5% or less (almost no effect))	L (windgrass) herbicidal effect grade [3, 19]: 0 (Herbicidal rate of 5% or less (almost no effect)); K (Italian ryegrass) herbicidal effect grade [5, 19]: 3 (Herbicidal rate of 40% or more and less than 70%); herbicidal effect grade, C: oval-leafed pondweed ([9]; application during weed generation under submerged conditions, amount of applied herbicide 320 g/ha): 3 (Herbicidal rate of 40% or more and less than 70%); Herbicidal effect on E (rice flat sedge), foliage application [10, 18]: 5 (Herbicidal rate of 90% or more (almost completely withered)); H (barnyard grass) herbicidal effect grade [11, 19]: 0 (Herbicidal rate of 5% or less (almost no effect)); M (velvetleaf) herbicidal effect grade [12, 19]: 5 (Herbicidal rate of 90% or more (almost completely withered)); P (chickweed) herbicidal effect grade [13, 19]: 5 (Herbicidal rate of 90% or more (almost completely withered)); Herbicidal effect on D (Chinese sprangletop), foliage application [16, 18]: 3 (Herbicidal rate of 40% or more and less than 70%)
